One data set relates to Nrf2. Kind of data set: Nrf2 expression by western blotting. In kind it is cell-based, human. On the procedure: (§1) Caco2 and hEL cells were cultured in a 100 mm^2 cell culture dish with MEM containing 10% FBS at 37 °C in a humidified atmosphere of 5% CO2. To determine the effects of the treatment conditions, hEL cells were incubated with various concentrations of B(a)P and G-Rg3 in MEM for 48 h. The cells were subjected to further analysis or harvested to prepare cell-free extracts.
(§2) hEL cells were washed using ice-cold PBS and then lysed using radioimmunoprecipitation assay buffer containing a protease inhibitor and phosphatase inhibitors. After protein quantification using a total protein assay kit, 30 µg of protein from each sample was separated by 12% SDS‒PAGE and transferred electrophoretically onto the PVDF membrane. The membranes were blocked using 5% skim milk and then incubated with primary antibodies overnight at 4 °C. After incubation with horseradish peroxidase-conjugated secondary antibody, enhanced chemiluminescent reagent was added to visualize the binding signals. The intensity of each protein band was quantified using ImageJ software.
For orientation: Immunoblotting shows a protein as a band on a membrane.

The test system of data set [1] is GST. Kind of data set: GST expression by western blotting. It is filed as cell-based, human. As for the experimental part:
as §1, §2

The subject of data set [2] is GST. Kind of data set: GST activity assay kit. In kind it is cell-based, human. On the procedure: hEL cells were seeded in 96-well plates at a density of 1 × 10^4 cells per well and treated with 10 µM B(a)P in the absence or presence of 10 µM G-Rg3 for 48 h. GST activity was measured using a commercial GST activity assay kit according to the manufacturer’s protocols. The relative activation of GST was measured by using a microplate reader for absorbance at 450 nm.

Another data set relates to Caco-2 cells. The conditions noted are these: cited from earlier work.
Data set [3] can be described thus: Side effects in the model mice: body weight, plasma ALT and Cr. It is filed as in vivo, A/J mice. The following applies: G-Rg3 treatment groups vs control group. As for the experimental part:
(§3) All experiments were performed in accordance with relevant guidelines and regulations, and the study was conducted in accordance with Animal Research: Reporting of in vivo Experiments (ARRIVE) guidelines. […] One week later, the mice were randomly divided into control and different treatment groups with 15 mice per group, and treatment was performed once every day via oral gavage. Following 20 weeks of treatment, the animals were sacrificed by CO2 asphyxiation. The lungs were collected and fixed for 24 h. Quantification of the surface tumor count and individual tumor size on each lung was performed under a dissecting microscope. The tumor volume (V) estimation was calculated using the following expression: V (mm^3) = 4/3πr^3, where r is the tumor diameter. The net sum of all the volumes of tumors in a mouse lung was the total tumor volume, with the mean total tumor volume per group represented the tumor load. Whole blood and intestine samples were collected and stored at − 80 °C for UPLC‒MS/MS assays. Serum was collected and analyzed for alanine transaminase (ALT) and serum creatinine (Cr) levels by an automatic biochemical analyzer to evaluate liver and kidney function.

For data set [4], the system named is BPDE-DNA adducts in hEL cells. Kind of data set: BPDE-DNA adduct formation (ELISA kit). The following applies: for BPDE-DNA adduct level: 10 µM B(a)P cotreatment with 10 µM G-Rg3, 48 h; for BPDE-DNA adducts: B(a)P and G-Rg3 cotreatment. In kind it is cell-based, human. As for the experimental part: After treatment for 48 h, DNA was extracted from hEL cells using the QIAamp DNA Mini Kit according to the manufacturer’s protocol. BPDE-DNA adduct formation was detected using the BPDE-DNA adduct ELISA kit. The relative BPDE-DNA adduct levels were measured using a microplate reader for absorbance at 450 nm.
On the technique in general: In an ELISA, binding on a coated surface is turned into a signal by an enzyme label.

The nature of data set [5]: UPLC-MS/MS levels of ginsenosides in blood/plasma and intestine after 20-weeks treatment. It is filed as in vivo, A/J mice. The following applies: for concentration at 20 weeks: A/J, mouse. On the procedure: All experiments were approved by the laboratory animal ethics committee of Tongji Medical College, Huazhong University of Science and Technology (approval no. 2019; file no. 4587TH). All experiments were performed in accordance with relevant guidelines and regulations, and the study was conducted in accordance with Animal Research: Reporting of in vivo Experiments (ARRIVE) guidelines. Eight-week-old A/J mice were given an initial intraperitoneal injection of B(a)P in tricaprylin (100 mg/kg in 0.2 mL). One week later, the mice were randomly divided into control and different treatment groups with 15 mice per group, and treatment was performed once every day via oral gavage. Following 20 weeks of treatment, the animals were sacrificed by CO2 asphyxiation. The lungs were collected and fixed for 24 h. Quantification of the surface tumor count and individual tumor size on each lung was performed under a dissecting microscope. The tumor volume (V) estimation was calculated using the following expression: V (mm^3) = 4/3πr^3, where r is the tumor diameter. The net sum of all the volumes of tumors in a mouse lung was the total tumor volume, with the mean total tumor volume per group represented the tumor load. Whole blood and intestine samples were collected and stored at − 80 °C for UPLC‒MS/MS assays. Serum was collected and analyzed for alanine transaminase (ALT) and serum creatinine (Cr) levels by an automatic biochemical analyzer to evaluate liver and kidney function.
As described above, the collected samples were retrieved from cold storage, thawed, weighed, and placed in a test tube. To this, 0.5 µM phloridzin (internal standard) in 0.8 mL of methanol solution was added. Then, the tissue was homogenized using a Tissue-Tearor and the homogenate was subsequently transferred into a 1.5 mL microcentrifuge tube. The mixture was centrifuged for 15 min at 15,500 rpm. Following the removal of […] of the supernatant, nitrogen–based drying was performed. Two hundred microliters of methanol was used for reconstitution. Blood was collected and processed on the same lines and used as a reference for all measurements.

Data set [6] deals with lung tumors induced by B(a)P in A/J mice. Kind of data set: B(a)P-induced lung tumorigenesis in A/J mice, tumor load. In kind it is in vivo. The conditions noted are these: G-Rg3 study, 20-weeks treatment; control 1.63 ± 0.40. As for the experimental part: The mice were sacrificed by CO2 asphyxiation after the 20th week of red ginseng treatment.
as §3

The subject of the next data set is Caco-2 monolayer. Kind of data set: Transcellular transport across the Caco-2 monolayer. It is filed as in vitro ADME. The following applies: for Pb-a compared with Pa-b: no verapamil. On the procedure: This assay was performed in accordance with an earlier study.
The cells were subjected to washing using HBSS and preincubation at 37 °C following 3 weeks of culture. […] Collection of 100 µL medium was performed at the indicated times (0, 15, 30, 45, 60, 90, and 120 min), and 100 µL HBSS was added to replenish this volume. These samples were stored at […] until UPLC‒MS/MS assays. The expression Papp = dQ/(dT × A × C0) was utilized to quantify the apparent unidirectional permeability for both the apical and basolateral sides and vice versa (Pa-b and Pb-a, respectively); dQ/dT represents the concentration change, A (0.6 cm^2) represents the monolayer surface area, and C0 represents the initial donor concentration. The efflux ratio was calculated as Pb-a/Pa-b, which represents the degree of efflux transport of the study drug.
In general terms: Caco-2 cells form a polarised layer with tight junctions and transporters.

A further data set relates to hEL cells. Kind of data set: Cell viability (MTS) assay. In kind it is cell-based, human. The conditions noted are these: compound alone, 0-20 µM, 48 h.
In data set [7] the test system is rat pulmonary epithelial cells. Details: method as in PMID 17357179. The following applies: in the presence of verapamil; cited from earlier work.
The conditions of data set [8]: cited from earlier work.
Where [9] appears, read: verapamil 50 or 100 µM vs no verapamil.
Where [10] appears, read: 10 µM B(a)P cotreatment with 10 µM G-Rg3.
The mark [11] stands for this setting: 10 µM B(a)P cotreatment with 10 µM G-Rg3, 48 h.

Like-named read-outs stand apart in the source and are kept apart here.

The source of these data is publication PMC10027881 (Scientific Reports, 2023).

As for `c1ccc2c(c1)cc1ccc3cccc4ccc2c1c34` [B(a)P, benzo(a)pyrene, reference compound], the “level of Nrf2” value was 51.3 ± 6.8% in the data set with Nrf2 (B(a)P only, G-Rg3r experiment) and 41 ± 9.8% with Nrf2 (B(a)P only, G-Rg3s experiment). For the same compound, the GST expression in the data set on GST [1] (10 µM B(a)P alone, G-Rg3r groups) is listed as 59.7 ± 8.2%; in the data set on GST [1] (10 µM B(a)P alone, G-Rg3s groups), 39 ± 4.5%. The GST activity in the data set with GST [2] (10 µM B(a)P only, 48 h) turned out to be 35.7 ± 7.8%.

On to `CC(C)=CCC[C@](C)(O[C@@H]1O[C@H](CO)[C@@H](O)[C@H](O)[C@H]1O)[C@H]1CC[C@]2(C)[C@@H]1[C@H](O)C[C@@H]1[C@@]3(C)CC[C@H](O)C(C)(C)[C@@H]3CC[C@]12C` [Compound K], for which, in the data set with Caco-2 cells, the “intracellular levels spiked by a factor of” value was 40.

In the case of `CC(C)=CCC[C@](C)(O)[C@H]1CC[C@]2(C)[C@@H]1[C@H](O)C[C@@H]1[C@@]3(C)CC[C@H](O[C@@H]4O[C@H](CO)[C@@H](O)[C@H](O)[C@H]4O[C@@H]4O[C@H](CO)[C@@H](O)[C@H](O)[C@H]4O)C(C)(C)[C@@H]3CC[C@]12C` [G-Rg3, ginsenoside Rg3], in data set [3], the “body weight loss or clinical signs of toxicity” value is given as “No significant body weight loss or clinical signs of toxicity”.

For the compound `CC(C)=CCCC(C)(O)C1CCC2(C)C1C(O)CC1C3(C)CCC(OC4OC(CO)C(O)C(O)C4OC4OC(CO)C(O)C(O)C4O)C(C)(C)C3CCC12C` (stereo not shown) [G-Rg3r, ginsenoside Rg3], the BPDE-DNA adduct level in data set [4] is listed as 1.87 ± 0.33. Moreover, the BPDE-DNA adducts in [4] (control siRNA group) was found to be 1.47 ± 0.21; in data set [4] (siNrf2 group), 3.0 ± 0.21. Further, in the data set on Nrf2 (B(a)P-G-Rg3 cotreatment), the “level of Nrf2” value came to 106 ± 9.5%. Further, the concentration at 20 weeks in [5] (intestine, oral, with verapamil coadministered (dose not stated), read-out: level in the intestine) was 1350 ± 130 ng/g; in data set [5] (intestine, oral, read-out: level in the intestine), 530 ± 80 ng/g; in data set [5] (plasma, oral, with verapamil coadministered (dose not stated), read-out: plasma level) it was 1.17 ± 0.47 µM; in [5] (plasma, oral, read-out: plasma level) it was 0.44 ± 0.32 µM. Moreover, the tumor load in [6] is reported as 0.75 ± 0.29 mm^3. The “Pa-b (apical to basolateral)” value in the data set on Caco-2 monolayer (10 µM G-Rg3, 50 µmol/L verapamil) is reported as 0.73 ± 0.06; in the data set on Caco-2 monolayer (10 µM G-Rg3, 100 µmol/L verapamil), 1.14 ± 0.09; in the data set with Caco-2 monolayer (10 µM G-Rg3, no verapamil), 0.38 ± 0.06. Further, the “Pb-a compared with Pa-b” value in the data set on Caco-2 monolayer is “significantly higher”. Moreover, the “average Pb-a after verapamil treatment” value in the data set on Caco-2 monolayer (setting [9]) was “significant decrease”. Further, the GST expression in the data set with GST [1] (setting [10]) came out at 103.7 ± 15.5%. Further, the “cytotoxicity on hEL cells” value in the data set with hEL cells is listed as “nontoxic”. In addition, the GST activity in the data set on GST [2] (setting [11]) is recorded as 96.3 ± 6.6%.

As for `CC(C)=CCCC(C)(O)C1CCC2(C)C1C(O)CC1C3(C)CCC(OC4OC(CO)C(O)C(O)C4OC4OC(CO)C(O)C(O)C4O)C(C)(C)C3CCC12C` (stereo not shown) [G-Rg3s, ginsenoside Rg3], the BPDE-DNA adduct level in [4] worked out at 1.93 ± 0.48. Also, the BPDE-DNA adducts in [4] (control siRNA group) turned out to be 1.8 ± 0.32. The BPDE-DNA adducts in data set [4] (siNrf2 group) amounted to 3.6 ± 0.45. The “level of Nrf2” value in the data set on Nrf2 (B(a)P-G-Rg3 cotreatment) was found to be 117 ± 6.2%. Further, the “plasma and intestine levels when verapamil was coadministered, in words” value in [5] (after 20-weeks treatment) is “followed a similar pattern”. Further, in [6], the tumor load worked out at 0.81 ± 0.30 mm^3. The “Pb-a compared with Pa-b” value in the data set on Caco-2 monolayer was “significantly higher”. In the data set on Caco-2 monolayer (setting [9]), the “average Pb-a after verapamil treatment” value is listed as “significant decrease” and the “transport (Pa-b) after verapamil treatment, in words” value is “followed a similar pattern”. For the same compound, the GST expression with GST [1] (setting [10]) worked out at 110 ± 11.1%. For the same compound, in the data set on hEL cells, the “cytotoxicity on hEL cells” value is “nontoxic”. Moreover, the GST activity in the data set on GST [2] (setting [11]) is given as 92.3 ± 6.5%.

`CC(C)=CCC[C@](C)(O[C@@H]1O[C@H](CO)[C@@H](O)[C@H](O)[C@H]1O)[C@H]1CC[C@]2(C)[C@@H]1[C@H](O)C[C@@H]1[C@@]3(C)CC[C@H](O)C(C)(C)[C@@H]3[C@@H](O[C@@H]3O[C@H](CO)[C@@H](O)[C@H](O)[C@H]3O)C[C@]12C` [Rg1]: the “levels in rat pulmonary epithelial cells” value in data set [7] is “increased”.

Regarding `CC(C)=CC/C=C(\C)[C@H]1CC[C@]2(C)[C@@H]1[C@H](O)C[C@@H]1[C@@]3(C)CC[C@H](O[C@@H]4O[C@H](CO)[C@@H](O)[C@H](O)[C@H]4O[C@@H]4O[C@H](CO)[C@@H](O)[C@H](O)[C@H]4O)C(C)(C)[C@@H]3CC[C@]12C` [Rg5], the “ginsenoside in the blood” value in data set [5] (after 20-weeks KRGB treatment, oral) is 0.0063 ± 0.0005 µg/mL.

In the case of `CC(C)=CCC[C@](C)(O)[C@H]1CC[C@]2(C)[C@@H]1[C@H](O)C[C@@H]1[C@@]3(C)CC[C@H](O[C@@H]4O[C@H](CO)[C@@H](O)[C@H](O)[C@H]4O)C(C)(C)[C@@H]3CC[C@]12C` [ginsenoside Rh2], the bioavailability in [8] (initial value, without cyclosporine A) is listed as 1%; in [8] (with cyclosporine A treatment), “more than 30%”.

Usually bioavailability stands for dose-corrected exposure relative to a reference, in per cent.
